This is an account of results in US20050239774A1 (priority 2002, published 2005).

In this assay the target is α7 nAChR subtype (Rattus norvegicus, UniProt Q05941). Format: binding. The conditions noted are these: read-out: KD of the radioligand (saturation curve, one site model).
Sequence of α7 nAChR subtype (Q05941 23-502 limits assumed): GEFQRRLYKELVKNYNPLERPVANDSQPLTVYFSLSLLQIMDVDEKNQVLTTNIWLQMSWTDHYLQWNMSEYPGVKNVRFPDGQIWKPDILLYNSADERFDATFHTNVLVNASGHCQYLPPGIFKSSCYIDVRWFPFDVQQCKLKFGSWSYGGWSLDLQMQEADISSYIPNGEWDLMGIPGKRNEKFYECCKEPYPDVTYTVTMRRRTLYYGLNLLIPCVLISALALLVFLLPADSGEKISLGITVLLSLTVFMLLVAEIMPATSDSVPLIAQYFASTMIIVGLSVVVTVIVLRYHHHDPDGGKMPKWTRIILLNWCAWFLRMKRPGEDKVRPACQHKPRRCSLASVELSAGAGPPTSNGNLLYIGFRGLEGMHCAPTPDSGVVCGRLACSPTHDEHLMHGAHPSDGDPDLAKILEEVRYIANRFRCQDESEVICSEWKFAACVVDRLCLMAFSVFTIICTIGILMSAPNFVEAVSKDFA

With ^125I-α-Bungarotoxin [^125I-α-BTX], the Kd amounted to 1.67 nM.
